In patent publication US20030203969A1, “Pharmaceutically active aromatic guanylhydrazones” (priority 2000, published 2003):

Legend:
Vero cells = test system: Vero cells
Description: A cytoprotection assay procedure using MTS is employed to evaluate compounds for antiviral activity against Respiratory Syncytial Virus (Long) in Vero (African green monkey, ATCC Cat. No. CCL-81) cells. The cells are pre-grown overnight at 37° C. (2×10^4/well in 96 well tissue culture plates) with 10% fetal Bovine serum containing Minimum Essential Medium. The positive control for the assay is Interferon-Gamma/Ribavirin. The infection medium contains reduced serum levels (2% FBS).
Using half log dilutions with high test starting at 100 μg/ml the drug dilutions are made and added to triplicate cultures in 0.1 ml volume and pre-titrated virus suspension is also added in 0.1 ml volume. […] CPE inhibition is determined by dye uptake procedure (Celltiter-MTS). […] The amount of soluble formazan produced by cellular reduction of the MTS is measured by the absorbance at 490 nm. The quantity of formazan product as measured by the amount of 490 nm absorbance is directly proportional to the number of living cells in the culture thus allowing the rapid quantitative analysis of the inhibition of virus-induced cell killing by the test substances. […]
The inhibitory drug concentration which reduces the viral replication by 95% (IC95) and the minimum drug concentration which inhibits cell growth by 95% (TC95) are calculated by using a regression analysis program for semilog curve fitting. […]

NNRTI-resistant HIV-1 = experiment: Inhibition of multiple anti-retroviral drug resistant HIV-1 strains: NNRTI-resistant; type: cell-based
Description: In addition, various different “types” of multiple anti-retroviral drug resistant HIV-1 strains were also tested: […]

Question: CC(=NNC(=N)N)c1cc(NC(=O)CCCCCCCCC(=O)Nc2cc(C(C)=NNC(=N)N)cc(C(C)=NNC(=N)N)c2)cc(C(C)=NNC(=N)N)c1 [Compound 4, N,N′-bis (3,5-diacetylphenyl) decane diamide tetrakis (amidinohydrazone)] was tested. Which CC50 (Vero cells) did it give?
Answer: The CC50 was 8.68 µM.

Question: And the “TC95” value (Vero cells)?
Answer: The value was 30.20 µM.

Question: What about the “[%] inhibition of virus replication” value (NNRTI-resistant HIV-1; NNRTI-resistant HIV-1, 0.5 μM) of the same compound?
Answer: Its value is 71%.

Question: And the “[%] inhibition of virus replication” value (NNRTI-resistant HIV-1; NNRTI-resistant HIV-1, 1.0 μM)?
Answer: The value was 82%.
